From patent US20260297031A1, “HYDROXYLAMINE-BASED BCR-ABL1 INHIBITORS FOR TREATMENT OF CANCER” (University of Georgia Research Foundation, Inc., priority 2023, published 2026)

Key:
[1] = Metabolic stability in human liver microsomes; format: in vitro ADME; conditions: human liver microsomes
Method: (§1) Metabolic Stability in Liver Microsomes (Independently Performed by Pharmaron Inc., Ninqbo, CN)
(§2) This experiment was carried out under two separate set of conditions: i) with Cofactors (NADPH), which consisted of adding 25 μL of 10 mM NADPH to the incubations, giving a final NADPH concentration of 1 mM, and ii) without Cofactors (NADPH), which consisted of adding 25 μL of 100 mM phosphate buffer to the incubations. Under both sets of conditions, the final concentration of microsomes were 0.5 mg/mL. […] Samples were then centrifuged at 3,220 g for 40 min and aliquots of 100 μL of the supernatant were mixed with 100 μL of ultra-pure H2O and analyzed by LC-MS/MS.
(§3) Peak areas were determined from extracted ion chromatograms. The slope value, k, was determined by linear regression of the natural logarithm of the remaining percentage of the parent drug vs incubation time curve.

[2] = molecular target: T1, BCR-ABL1 T315I (Homo sapiens, UniProt P00519, T315I); test: KinaseProfiler radiometric kinase assay, BCR-ABL1 T315I; format: biochemical; conditions: [ATP] = 10 μM; mean of n = 2
T1 construct: BCR (fusion partner, as the printed name BCR-ABL1 says)

[3] = Caco-2 permeability; conditions: human
Method: Caco-2 Permeability (Independently Performed by Pharmaron Inc., Ningbo, CN)
To each well of the Transwell insert and reservoir were added 50 μL and 25 mL of cell culture medium, respectively. […] Following this, the Caco-2 plate was removed from the incubator and the monolayer washed twice with pre-warmed HBSS (10 mM HEPES, pH 7.4).
To determine the rate of drug transport in the apical to basolateral direction, 125 μL of the working solution of either test compounds or control compounds was added to the Transwell insert (apical compartment) and a 50 μL sample was immediately transported from the apical compartment to 200 μL of acetonitrile containing internal standard (100 nM alprazolam, 200 nM Caffeine and 100 nM tolbutamide) in a new 96-well plate as the initial donor sample (A-B). The sample was then vortexed at 1,000 rpm for 10 min. The receiver plate (basolateral compartment) wells were then filled with 235 μL of transport buffer. To determine the rate of drug transport in the basolateral to apical direction, 285 μL of the working solution of either test compounds or control compounds was added to the receiver plate wells (basolateral compartment) and a 50 μL sample was immediately transferred from the basolateral compartment to 200 μL of acetonitrile containing internal standard in a new 96-well plate as the initial donor sample (B-A). The sample was vortexed at 1,000 rpm for 10 min. The Transwell insert (apical compartment) was then filled with 75 μL of transport buffer and the apical to basolateral direction and the basolateral to apical direction were done at the same time. […] After incubation, 50 μL samples from donor sides (apical compartment for Ap→BI flux, and basolateral compartment for BI→Ap) and receiver sides (basolateral compartment for Ap→BI flux, and apical compartment for BI→Ap) were transferred to wells of a new 96-well plate, followed by the addition of 200 μL acetonitrile containing internal standard. All samples were vortexed for 10 min and then centrifuged at 3,220 g for 40 min. A 150 μL aliquot of the supernatant was then mixed with an appropriate volume of ultra-pure water prior to LC-MS/MS analysis.
(§4) To monitor for monolayer integrity, Lucifer yellow leakage was determined after the 2 h transport period. This began by preparing a stock solution of Lucifer yellow in DMSO which was diluted with HBSS (10 mM HEPES, pH 7.4.) to reach a final concentration of 100 μM. To each Transwell insert (apical compartment) was then added 100 μL of the Lucifer yellow solution, followed by filling the wells in the receiver plate (basolateral compartment) with 300 μL of HBSS (10 mM HEPES, pH 7.4).
(§5) The efflux ratio was determined using the following equation: […]

[4] = MDCKII-MDR1 permeability; conditions: dog, MDCK-MDR1, pH 7.4
Method: MDCKII-MDR1 Permeability (Independently Performed By: Pharmaron Inc., Ninqbo, CN)
To each well of the Transwell insert and reservoir were added 50 μL and 25 mL of cell culture medium, respectively.
To determine the rate of drug transport in the apical to basolateral direction, 125 μL of the working solution of either test compounds or control compounds was added to the Transwell insert (apical compartment) and a 50 μL sample was immediately transferred from the apical compartment to 200 μL of acetonitrile containing internal standard (100 nM alprazolam, 200 nM caffeine, and 100 nM tolbutamide) in a new 96-well plate as the initial donor sample (A-B). The sample was then vortexed at 1,000 rpm for 10 min. The receiver plate (basolateral compartment) wells were then filled with 235 μL transport buffer. To determine the rate of drug transport in the basolateral to apical direction, 285 μL of the working solution of either test compounds or control compounds was added to the receiver plate (basolateral compartment) wells and a 50 μL of sample was immediately transferred from the basolateral compartment to 200 μL of acetonitrile containing internal standard in a new 96-well plate as the initial donor sample (B-A). The sample was vortexed for 10 min at 1,000 rpm. The Transwell insert (apical compartment) was then filled with 75 μL of transport buffer and the apical to basolateral direction and the basolateral to apical direction were done at the same time. […] After incubation, 50 μL samples from donor sides (apical compartment for Ap→BI flux, and basolateral compartment BI→Ap) and receiver sides (basolateral compartment for Ap→BI flux, and apical compartment for BI→Ap) were transferred to wells of a new 96-well plate, followed by the addition of 200 μL acetonitrile containing internal standard. […] An aliquot of 100 μL of the supernatant was mixed with an appropriate volume of ultra-pure water before LC-MS/MS analysis.
as §4, with “and” for “which was”
as §5

[5] = molecular target: T2, BCR-ABL1 Y253F (Homo sapiens, UniProt P00519, Y253F); test: KinaseProfiler radiometric kinase assay, BCR-ABL1 Y253F; format: biochemical; conditions: [ATP] = 10 μM; mean of n = 2
T2 construct: BCR (fusion partner, as the printed name BCR-ABL1 says)

[6] = Metabolic stability in rat liver microsomes; format: in vitro ADME; conditions: rat liver microsomes
Method: as §1, §2, §3

[7] = molecular target: hERG channel (Homo sapiens, UniProt Q12809); test: hERG safety evaluation by manual patch-clamp system
[8] = read-out: LMCIint (rate of metabolism)

hERG channel, sequence (Q12809 whole entry): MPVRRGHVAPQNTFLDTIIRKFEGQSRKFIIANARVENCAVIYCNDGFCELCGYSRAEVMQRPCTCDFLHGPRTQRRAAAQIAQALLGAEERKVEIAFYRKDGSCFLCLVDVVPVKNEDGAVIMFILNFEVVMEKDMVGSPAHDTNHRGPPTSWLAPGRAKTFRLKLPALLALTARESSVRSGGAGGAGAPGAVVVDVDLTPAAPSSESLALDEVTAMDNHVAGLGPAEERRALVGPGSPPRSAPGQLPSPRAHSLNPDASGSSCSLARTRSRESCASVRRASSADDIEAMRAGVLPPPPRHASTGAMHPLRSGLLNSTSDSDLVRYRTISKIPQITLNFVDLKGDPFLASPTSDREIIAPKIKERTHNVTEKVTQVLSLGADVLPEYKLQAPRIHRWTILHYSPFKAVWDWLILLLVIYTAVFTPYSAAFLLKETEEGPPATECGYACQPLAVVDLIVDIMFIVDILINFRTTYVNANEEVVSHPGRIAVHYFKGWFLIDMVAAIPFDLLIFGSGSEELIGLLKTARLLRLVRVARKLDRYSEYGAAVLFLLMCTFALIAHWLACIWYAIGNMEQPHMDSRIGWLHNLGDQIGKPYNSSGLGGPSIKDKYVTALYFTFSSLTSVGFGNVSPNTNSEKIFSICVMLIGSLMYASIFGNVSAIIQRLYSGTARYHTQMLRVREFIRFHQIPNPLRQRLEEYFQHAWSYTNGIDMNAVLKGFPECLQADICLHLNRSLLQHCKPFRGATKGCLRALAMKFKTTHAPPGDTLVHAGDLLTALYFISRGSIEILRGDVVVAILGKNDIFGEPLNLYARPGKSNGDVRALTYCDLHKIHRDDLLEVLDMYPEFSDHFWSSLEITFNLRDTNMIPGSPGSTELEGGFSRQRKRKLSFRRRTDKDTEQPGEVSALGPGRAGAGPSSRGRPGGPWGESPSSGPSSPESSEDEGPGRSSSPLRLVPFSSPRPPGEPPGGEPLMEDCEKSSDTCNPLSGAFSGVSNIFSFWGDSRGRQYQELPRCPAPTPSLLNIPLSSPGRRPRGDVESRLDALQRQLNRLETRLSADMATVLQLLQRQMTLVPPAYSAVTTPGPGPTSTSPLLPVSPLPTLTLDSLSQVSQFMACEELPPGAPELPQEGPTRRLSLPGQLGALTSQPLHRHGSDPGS

| Compound | half-life at 1 µM [1] | microsomal CLint at 1 µM [1, 8] | IC50 [2] | Papp A→B at 2 h, 5 µM [3] | Papp A→B at 2 h, 1 µM [4] | Papp B→A at 2 h, 1 µM [4] | efflux ratio at 1 µM [4] | IC50 [5] | half-life at 1 µM [6] | microsomal CLint at 1 µM [6, 8] | hERG liability, in words [7] |
| --- | --- | --- | --- | --- | --- | --- | --- | --- | --- | --- | --- |
| COc1cc(Nc2c(C#N)cnc3cc(OCCON4CCN(C)CC4)c(OC)cc23)c(F)cc1Cl [Compound 15, 4-((4-chloro-2-fluoro-5-methoxyphenyl)amino)-6-methoxy-7-(2-((4-methylpiperazin-1-yl)oxy)ethoxy)quinoline-3-carbonitrile] | 4.3 min | 321 µL/min/mg | 166 nM | 1.9 ×10⁻⁶ cm/s | 0.7 ×10⁻⁶ cm/s | 19.3 ×10⁻⁶ cm/s | 26.5 | 1 nM | 4.9 min | 286 µL/min/mg | – |
| COc1cc2c(Nc3cccc(OC)c3Cl)c(C#N)cnc2cc1OCCON1CCN(C)CC1 [Compound 17, 4-((2-Chloro-3-methoxyphenyl)amino)-6-methoxy-7-(2-((4-methylpiperazin-1-yl)oxy)ethoxy)quinoline-3-carbonitrile] | – | – | – | – | – | – | – | – | – | – | minimal hERG inhibition |
